Data on five compounds can be found in patent US6514911B1, “Substituted oxadiazines useful as pesticides” (Uniroyal Chemical Company, Inc., priority 2002, dated 2003).

Common to all, as to format: in vivo
The test system of experiment [1] is tall morningglory (Ipomoea purpurea (L.) Roth) (TM). As to the kind of experiment: Postemergence herbicide test, foliar spray, tall morningglory. The following applies: 3000 ppm foliar spray to drip point, treated six days after emergence, two weeks after treatment. How it is done: (§1) To illustrate the effectiveness of the previously described substituted oxadiazines of this invention as preemergence herbicides, 300 mg of the chemical was dissolved in a composition comprising 10 mL acetone to which 30 mg of tile emulsifying agent, ethoxylated sorbitan monolaurate, was added. The solution was diluted to 100 mL with distilled water. Ten milliliters of this 3000 ppm solution was diluted to 250 ppm with distilled water. The chemical was applied at the rate of 10 pounds/acre (11.2 kg/ha) by drenchings 46 mL of the 250 ppm solution on the surface of soil in 4½ inch (11.25 cm) plastic pots wherein seeds of the following weeds had been planted: tall morningglory (Ipomoea purpurea (L.) Roth) (TM), To illustrate the effectiveness of the described substituted oxadiazines as postemergence herbicides, the 3000 ppm solution described under Example 5 was atomized with a conventional DeVilbiss™ sprayer, wetting the foliage to the drip point. The weeds, which were the same species as described in Example 5, were treated six days after emergence. The percent weed control was evaluated two weeks after treatment.

The test system of experiment [2] is barnyardgrass (Echinochloa crus-galli (L.) Beauv.) (BG). As to the kind of experiment: Postemergence herbicide test, foliar spray, barnyardgrass. The following applies: 3000 ppm foliar spray to drip point, treated six days after emergence, two weeks after treatment. How it is done:
as §1, with “barnyardgrass (Echinochloa crus-galli” for “tall morningglory (Ipomoea purpurea”, “Beauv.) (BG), and” for “Roth) (TM),”

Experiment [3] concerns velvetleaf (Abutilon theophrasti Medik.) (VL). As to the kind of experiment: Postemergence herbicide test, foliar spray, velvetleaf. The following applies: 3000 ppm foliar spray to drip point, treated six days after emergence, two weeks after treatment. How it is done:
as §1, with “velvetleaf (Abutilon theophrasti Medik.) (VL),” for “tall morningglory (Ipomoea purpurea (L.) Roth) (TM),”

Experiment [4] has as its system switchgrass (Panicum virgahim L.) (SG). As to the kind of experiment: Preemergence herbicide test, soil drench, switchgrass. The following applies: Panicum, 336 h, 10 lbs/A (11.2 kg/ha) soil drench, two weeks after treatment, vs untreated checks, read-out: Percent Weed Control SG. In a few lines: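 Preemergence soil drench at 10 pounds/acre (11.2 kg/ha), 46 mL of 250 ppm aqueous solution (acetone, ethoxylated sorbitan monolaurate) applied to pots sown with switchgrass seed. Percent weed control versus untreated checks scored two weeks after treatment.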

Experiment [5] has as its system prickly sida (Sida spinosa L.) (PS). As to the kind of experiment: Postemergence herbicide test, foliar spray, prickly sida. Particulars: 3000 ppm foliar spray to drip point, treated six days after emergence, two weeks after treatment. How it is done: as §1, with “41⁄2” for “4½”, “prickly […] spinosa L.) (PS),” for “tall morningglory (Ipomoea purpurea (L.) Roth) (TM),”, “DeVilbissTM” for “DeVilbiss™”

Experiment [6] relates to tall morningglory (Ipomoea purpurea (L.) Roth) (TM). As to the kind of experiment: Preemergence herbicide test, soil drench, tall morningglory. The following applies: Ipomoea, 336 h, 10 lbs/A (11.2 kg/ha) soil drench, two weeks after treatment, vs untreated checks, read-out: Percent Weed Control TM. In a few lines: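 Acetone/emulsifier formulation diluted to 250 ppm and drenched onto soil surface of seeded pots at 10 lb/acre (11.2 kg/ha), preemergence. Percent weed control versus untreated checks scored two weeks after treatment.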

Consider `FC(F)(F)C1=NC(C(F)(F)F)(C(F)(F)F)N=C(c2cccc(Cl)c2)O1` [Compound 4, 2-(3-chlorophenyl)-4,4,6-tris(trifluoromethyl)-4H-1,3,5-oxadiazine], for which, in experiment [1], the “Percent Weed Control TM” value stood at 100%. Also, the “Percent Weed Control BG” value in experiment [2] was determined as 100%. For the same compound, the “Percent Weed Control VL” value in experiment [3] came to 50%. For the same compound, the pest or weed control at 11208.5 g/ha in experiment [4] and in experiment [6] was 100% throughout. The “Percent Weed Control PS” value in experiment [5] stood at 90%.

On to `FC(F)(F)C(F)(F)C1=NC(C(F)(F)F)(C(F)(F)F)N=C(c2cccc(Cl)c2)O1` [Compound 13, 2-(3-chlorophenyl)-6-(pentafluoroethyl)-4,4-bis(trifluoromethyl)-4H-1,3,5-oxadiazine], for which the “Percent Weed Control TM” value in experiment [1] was 100%. The “Percent Weed Control BG” value in experiment [2] was found to be 80%. Moreover, the “Percent Weed Control VL” value in experiment [3] worked out at 100%. Further, the pest or weed control at 11208.5 g/ha in experiment [4] and in experiment [6] was 100% each time. Besides, in experiment [5], the “Percent Weed Control PS” value turned out to be 100%.

As for `Fc1ccc(C2=NC(C(F)(F)F)(C(F)(F)F)N=C(C(F)(F)C(F)(F)F)O2)cc1Cl` [Compound 20, 2-(3-chloro-4-fluorophenyl)-6-(pentafluoroethyl)-4,4-bis(trifluoromethyl)-4H-1,3,5-oxadiazine], in experiment [1], the “Percent Weed Control TM” value is given as 0%. Further, the “Percent Weed Control BG” value in experiment [2] is 30%. In addition, the “Percent Weed Control VL” value in experiment [3] is given as 70%. Further, the pest or weed control at 11208.5 g/ha in experiment [4] and in experiment [6] was 100% throughout. For the same compound, in experiment [5], the “Percent Weed Control PS” value was 70%.

As for `FC(F)(F)C(F)(F)C1=NC(C(F)(F)F)(C(F)(F)F)N=C(c2ccc(Cl)cc2)O1` [Compound 24, 2-(4-chlorophenyl)-6-(pentafluoroethyl)-4,4-bis(trifluoromethyl)-4H-1,3,5-oxadiazine], the “Percent Weed Control TM” value in experiment [1] is 0%. Further, the “Percent Weed Control BG” value in experiment [2] amounted to 20%. Moreover, in experiment [3], the “Percent Weed Control VL” value amounted to 50%. Moreover, the pest or weed control at 11208.5 g/ha in experiment [4] and in experiment [6] was 100% in each case. Besides, the “Percent Weed Control PS” value in experiment [5] is 100%.

As to `FC(F)(F)C(F)(F)C1=NC(C(F)(F)F)(C(F)(F)F)N=C(c2ccc(Br)cc2)O1` [Compound 25, 2-(4-bromophenyl)-6-(pentafluoroethyl)-4,4-bis(trifluoromethyl)-4H-1,3,5-oxadiazine], the “Percent Weed Control TM” value in experiment [1] turned out to be 20%. In addition, the “Percent Weed Control BG” value in experiment [2] was 50%. Also, the “Percent Weed Control VL” value in experiment [3] is recorded as 100%. Besides, the pest or weed control at 11208.5 g/ha in experiment [4] and in experiment [6] was 100% throughout. Also, the “Percent Weed Control PS” value in experiment [5] is listed as 100%.
